In ChEMBL document CHEMBL2073835, “Apical uptake of organic cations by human intestinal Caco-2 cells: putative involvement of ASF transporters” (Naunyn Schmiedebergs Arch Pharmacol, 2001):

target: T1, Solute carrier family 22 member 3 (Homo sapiens, UniProt O75751); experiment: TP_TRANSPORTER: inhibition of MPP+ uptake (MPP+: 0.2 uM) in OCT3-expressing HEK293 cells; assay type: functional, cell-based
T1 sequence (O75751 whole entry): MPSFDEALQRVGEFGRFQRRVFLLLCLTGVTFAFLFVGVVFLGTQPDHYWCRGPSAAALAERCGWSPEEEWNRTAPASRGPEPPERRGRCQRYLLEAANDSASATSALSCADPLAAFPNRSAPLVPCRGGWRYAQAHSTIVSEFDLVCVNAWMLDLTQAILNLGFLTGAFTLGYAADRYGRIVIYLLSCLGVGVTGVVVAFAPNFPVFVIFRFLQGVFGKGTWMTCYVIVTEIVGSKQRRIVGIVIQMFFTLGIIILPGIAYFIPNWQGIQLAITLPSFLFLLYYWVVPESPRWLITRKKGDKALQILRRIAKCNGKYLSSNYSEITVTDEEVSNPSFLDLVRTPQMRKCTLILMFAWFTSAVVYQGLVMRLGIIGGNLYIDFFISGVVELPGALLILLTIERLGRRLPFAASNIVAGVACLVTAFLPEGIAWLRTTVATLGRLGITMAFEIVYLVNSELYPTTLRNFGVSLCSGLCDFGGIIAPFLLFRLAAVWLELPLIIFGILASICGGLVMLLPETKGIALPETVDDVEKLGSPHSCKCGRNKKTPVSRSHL

IC50 | SMILES
79.3 µM | Clc1cccc(Cl)c1N=C1NCCN1 [CLONIDINE]
1.76 µM | CC[n+]1c(CC2C=C(C)N=C(c3ccccc3)N2C)ccc2ccccc21 (stereo not drawn) [Cyanine-863]
10300 µM | CC[N+](CC)(CC)CC [TETRYLAMMONIUM]
